Patent publication US20140135319A1, “6-SUBSTITUTED IMIDAZOPYRAZINES FOR USE AS MPS-1 AND TKK INHIBITORS IN THE TREATMENT OF HYPERPROLIFERATIVE DISORDERS” (BAYER INTELLECTUAL PROPERTY GMBH, priority 2010, published 2014)

Target: T1, human kinase Mps-1 (Homo sapiens, UniProt P33981)
T1 construct: N-terminally GST-tagged human full length recombinant Mps-1 kinase; GST (N); purchased Invitrogen, Karslruhe, Germany PV4071
T1 sequence (P33981 1-857): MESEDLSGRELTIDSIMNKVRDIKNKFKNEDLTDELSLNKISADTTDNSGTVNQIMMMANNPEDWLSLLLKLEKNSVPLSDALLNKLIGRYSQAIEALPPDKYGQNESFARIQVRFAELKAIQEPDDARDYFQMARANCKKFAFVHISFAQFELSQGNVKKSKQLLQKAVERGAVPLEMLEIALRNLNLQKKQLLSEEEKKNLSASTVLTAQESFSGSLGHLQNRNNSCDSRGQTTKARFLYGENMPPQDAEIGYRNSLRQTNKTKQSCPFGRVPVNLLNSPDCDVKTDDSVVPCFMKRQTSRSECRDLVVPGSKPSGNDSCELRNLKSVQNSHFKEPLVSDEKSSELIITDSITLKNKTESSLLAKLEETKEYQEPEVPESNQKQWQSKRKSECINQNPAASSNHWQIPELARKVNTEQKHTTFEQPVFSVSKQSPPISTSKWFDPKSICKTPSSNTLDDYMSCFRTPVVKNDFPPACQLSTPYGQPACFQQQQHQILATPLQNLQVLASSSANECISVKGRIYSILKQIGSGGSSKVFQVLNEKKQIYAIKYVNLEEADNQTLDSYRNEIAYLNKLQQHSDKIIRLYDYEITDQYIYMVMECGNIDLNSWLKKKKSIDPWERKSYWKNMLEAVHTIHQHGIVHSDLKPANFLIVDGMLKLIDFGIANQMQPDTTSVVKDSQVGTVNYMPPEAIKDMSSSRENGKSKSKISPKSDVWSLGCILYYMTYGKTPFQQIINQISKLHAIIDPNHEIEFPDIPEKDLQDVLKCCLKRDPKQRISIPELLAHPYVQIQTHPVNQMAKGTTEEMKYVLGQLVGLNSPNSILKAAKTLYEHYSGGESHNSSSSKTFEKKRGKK
Assay: Mps-1 kinase assay (TR-FRET)
Format: biochemical
Conditions: GST-tagged human full length recombinant Mps-1; 10 μM ATP; 1 μM peptide substrate; 60 min at 22° C.
How it was run: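 N-terminally GST-tagged full-length recombinant human Mps-1, about 1 nM final, phosphorylates a biotinylated peptide. Product detected by TR-FRET from Eu-anti-phospho-Ser/Thr antibody to streptavidin-XLent after 1 h at 22° C.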

Structure (SMILES): N#CCCNc1nc(-c2cccc(CC(N)=O)c2)cn2c(-c3ccc(C(=O)NC4CC4)cc3)cnc12 [Example 1-86, 4-{6-[3-(2-amino-2-oxo-ethyl)phenyl]-8-[(2-cyano-ethyl)amino]imidazo[1,2-a]pyrazin-3-yl}-N-cyclo-propylbenzamide]
- IC50: 3.9 nM

Structure (SMILES): Cc1cc(-c2cnc3c(NCC4CCC(N(C)C)CC4)nc(C4=CCOCC4)cn23)ccc1C(=O)NC1CC1 (stereo not shown) [Example 6-18, N-cyclopropyl-4-[6-(3,6-dihydro-2H-pyran-4-yl)-8-({[4-(dimethylamino)cyclohexyl]methyl}amino)imidazo[1,2-a]pyrazin-3-yl]-2-methylbenzamide]
- IC50: 199 nM

Structure (SMILES): CC(C)(O)CNc1nc(-c2ccncc2)cn2c(-c3ccc(C(=O)NC4CC4)c(Cl)c3)cnc12 [Example 1-40, 2-chloro-N-cyclopropyl-4-{8-[(2-hydroxy-2-methylpropyl)amino]-6-(pyridin-4-yl)imidazo [1,2-a]pyrazin-3-yl} benzamide]
- IC50: 57.7 nM

Structure (SMILES): CC(C)CNc1nc(-c2ccncc2)cn2c(-c3ccc(C(=O)NC4CC4)c(Cl)c3)cnc12 [Example 1-32, 2-chloro-N-cyclopropyl-4-{8-[(2-methylpropyl)amino]-6-(pyridin-4-yl)imidazo[1,2-a]pyrazin-3-yl}benzamide]
- IC50: 6.2 nM

Structure (SMILES): CNC(=O)CCCCc1cn2c(-c3ccc(C(=O)NC4CC4)cc3)cnc2c(NCC(C)C)n1 [Example 7-5, N-cyclopropyl-4-{6-[5-(methylamino)-5-oxopentyl]-8-[(2-methylpropyl)amino]imidazo[1,2-a]pyrazin-3-yl} benzamide]
- IC50: 6.5 nM

Structure (SMILES): CC(C)CNc1nc(-c2ccc(F)nc2)cn2c(-c3ccc(C(=O)NC4CC4)cc3)cnc12 [Example 1-5, N-cyclopropyl-4-{6-(6-fluoropyridin-3-yl)-8-[(2-methylpropyl)amino]imidazo[1,2-a]pyrazin-3-yl}benzamide]
- IC50: 4.2 nM

Structure (SMILES): CC(C)(O)CNc1nc(C2=CCOCC2)cn2c(-c3ccc(C(=O)NC4CC4)c(F)c3)cnc12 [Example 1-60, N-cyclopropyl-4-{6-(3,6-dihydro-2H-pyran-4-yl)-8-[(2-hydroxy-2-methylpropyl)amino]imidazo[1,2-a]pyrazin-3-yl}-2-fluorobenzamide]
- IC50: 30.4 nM

Structure (SMILES): Cc1cc(-c2cnc3c(NCCC(C)CO)nc(C4=CCOCC4)cn23)ccc1C(=O)NC1CC1 (stereo not shown) [Example 6-6, N-cyclopropyl-4-{6-(3,6-dihydro-2H-pyran-4-yl)-8-[(4-hydroxy-3-methylbutyl)amino]imidazo[1,2-a]pyrazin-3-yl}-2-methylbenzamide]
- IC50: 20.6 nM

Structure (SMILES): O=C(NC1CC1)c1ccc(-c2cnc3c(NCCCF)nc(-c4ccncc4)cn23)cc1 [Example 3-33, N-cyclopropyl-4-{8-[(3-fluoropropyl)amino]-6-(pyridin-4-yl)imidazo [1,2-a]pyrazin-3-yl} benzamide]
- IC50: 3.2 nM

Structure (SMILES): CC(C)CNc1nc(C2=CCOCC2)cn2c(-c3ccc(C(=O)NC4CC4)cc3)cnc12 [Example 1-29, N-cyclopropyl-4-{6-(3,6-dihydro-2H-pyran-4-yl)-8-[(2-methylpropyl)amino]imidazo[1,2-a]pyrazin-3-yl}benzamide]
- IC50: 1.4 nM

Structure (SMILES): NC/C=C\CCNc1nc(-c2ccccc2)cn2c(-c3ccc(C(=O)NC4CC4)cc3)cnc12 [Example 4-3, 4-(8-{[(3Z)-5-aminopent-3-en-1-yl]amino}-6-phenylimidazo[1,2-a]pyrazin-3-yl)-N-cyclopropylbenzamide]
- IC50: 4.6 nM

Structure (SMILES): COc1cc(C(=O)NC2CC2)ccc1-c1cnc2c(NCCCN)nc(-c3ccncc3)cn12 [Example 1-100, 4-{8-[(3-Aminopropyl)amino]-6-(pyridin-4-yl)imidazo [1,2-a]pyrazin-3-yl}-N-cyclopropyl-3-methoxy-benzamide]
- IC50: 309 nM

Structure (SMILES): O=C(NC1CC1)c1ccc(-c2cnc3c(NCCOCC4CCCO4)nc(-c4ccccc4)cn23)cc1 (stereo not shown) [Example 3-41, N-cyclopropyl-4-(6-phenyl-8-{[2-(tetrahydrofuran-2-ylmethoxy)ethyl]amino}imidazo[1,2-a]pyrazin-3-yl)benzamide]
- IC50: 20.4 nM

Structure (SMILES): CCOc1ccc(-c2cn3c(-c4ccc(C(=O)NC5CC5)c(C)c4)cnc3c(NCCC(F)(F)F)n2)cn1 [Example 1-72, N-cyclopropyl-4-{6-(6-ethoxypyridin-3-yl)-8-[(3,3,3-trifluoropropyl)amino]imidazo[1,2-a]pyrazin-3-yl}-2-methyl-benzamide]
- IC50: 9.9 nM

Structure (SMILES): Cc1cc(-c2cnc3c(NCCC(F)(F)F)nc(-c4cccn4C)cn23)ccc1C(=O)NC1CC1 [Example 1-75, N-cyclopropyl-2-methyl-4-{6-(1-methyl-1H-pyrrol-2-yl)-8-[(3,3,3-trifluoro-propyl)amino]imidazo [1,2-a]pyrazin-3-yl} benzamide]
- IC50: 3.8 nM

Structure (SMILES): CC(C)CNc1nc(-c2cncnc2)cn2c(-c3ccc(C(=O)NC4CC4)cc3)cnc12 [Example 1-17, N-cyclopropyl-4-{8-[(2-methylpropyl)amino]-6-(pyrimidin-5-yl)imidazo [1,2-a]pyrazin-3-yl} benzamide]
- IC50: 16.5 nM

Structure (SMILES): CC(C)CNc1nc(N2CCCCS2(=O)=O)cn2c(-c3ccc(C(=O)NC4CC4)cc3)cnc12 [Example 12-1, N-cyclopropyl-4-{6-(1,1-dioxido-1,2-thiazinan-2-yl)-8-[(2-methylpropyl)amino]imidazo[1,2-a]pyrazin-3-yl}benzamide]
- IC50: 6.5 nM

Structure (SMILES): Cc1cc(-c2cnc3c(NCCCC(C)O)nc(C4=CCOCC4)cn23)ccc1C(=O)NC1CC1 (stereo not shown) [Example 6-12, N-cyclopropyl-4-{6-(3,6-dihydro-2H-pyran-4-yl)-8-[(4-hydroxypentyl)amino]imidazo[1,2-a]pyrazin-3-yl}-2-methylbenzamide]
- IC50: 28 nM

Structure (SMILES): Cc1cc(-c2cnc3c(NCC(C)(C)O)nc(Oc4ccccc4)cn23)ccc1C(=O)NC1CC1 [Example 13-4, N-cyclopropyl-4-{8-[(2-hydroxy-2-methylpropyl)amino]-6-phenoxy-imidazo[1,2-a]pyrazin-3-yl}-2-methylbenzamide]
- IC50: 2 nM

Structure (SMILES): Cc1cc(-c2cnc3c(NCCC(F)(F)F)nc(-c4cn[nH]c4)cn23)ccc1C(=O)NC1CC1 [Example 1-78, N-cyclopropyl-2-methyl-4-{6-(1H-pyrazol-4-yl)-8-[(3,3,3-trifluoro-propyl)amino]imidazo [1,2-a]pyrazin-3-yl} benzamide]
- IC50: 4.7 nM

Structure (SMILES): Cc1cc(-c2cnc3c(NCCC(F)(F)F)nc(CN4CCCCC4)cn23)ccc1C(=O)NC1CC1 [Example 11-1, N-cyclopropyl-2-methyl-4-{6-(piperidin-1-ylmethyl)-8-[(3,3,3-trifluoropropyl)amino]imidazo[1,2-a]pyrazin-3-yl}benzamide]
- IC50: 140 nM

Structure (SMILES): CC(C)CNc1nc(C2=CCNCC2)cn2c(-c3ccc(C(=O)NC4CC4)cc3)cnc12 [Example 1-26, N-cyclopropyl-4-{8-[(2-methylpropyl)amino]-6-(1,2,3,6-tetrahydro-pyridin-4-yl)imidazo [1,2-a]pyrazin-3-yl} benzamide]
- IC50: 2.9 nM

Structure (SMILES): Cc1cc(-c2cnc3c(NCCC(F)(F)F)nc(C4=CCOCC4)cn23)ccc1C(=O)NC1CC1 [Example 6-2, N-cyclopropyl-4-{6-(3,6-dihydro-2H-pyran-4-yl)-8-[(3,3,3-trifluoro-propyl)amino]imidazo[1,2-a]pyrazin-3-yl}-2-methylbenzamide]
- IC50: 6.5 nM

Structure (SMILES): O=C(NC1CC1)c1ccc(-c2cnc3c(NCc4cccnc4)nc(-c4ccncc4)cn23)cc1 [Example 3-18, N-cyclopropyl-4-{6-(pyridin-4-yl)-8-[(pyridin-3-ylmethyl)amino]imidazo [1,2-a]pyrazin-3-yl} benzamide]
- IC50: 2 nM

Structure (SMILES): Cc1cc(-c2cnc3c(NCCC(F)(F)F)nc(CNc4ccccc4)cn23)ccc1C(=O)NC1CC1 [Example 11-2, N-cyclopropyl-2-methyl-4-{6-[(phenylamino)methyl]-8-[(3,3,3-trifluoropropyl)amino]imidazo[1,2-a]pyrazin-3-yl}benzamide]
- IC50: 1.2 nM

Structure (SMILES): O=C(NC1CC1)c1ccc(-c2cnc3c(NCC4CCCO4)nc(C4=CCOCC4)cn23)cc1Cl (stereo not shown) [Example 1-45, 2-chloro-N-cyclopropyl-4-{6-(3,6-dihydro-2H-pyran-4-yl)-8-[(tetrahydro-furan-2-ylmethyl)amino]imidazo[1,2-a]pyrazin-3-yl}benzamide]
- IC50: 105 nM

Structure (SMILES): O=C(NC1CC1)c1ccc(-c2cnc3c(NCCC(F)(F)F)nc(-c4ccoc4)cn23)cc1F [Example 1-54, N-cyclopropyl-2-fluoro-4-{6-(furan-3-yl)-8-[(3,3,3-trifluoropropyl)amino]imidazo[1,2-a]pyrazin-3-yl}benzamide]
- IC50: 6.6 nM

Structure (SMILES): O=C(NC1CC1)c1ccc(-c2cnc3c(NCc4cccs4)nc(-c4ccncc4)cn23)cc1 [Example 3-1, N-cyclopropyl-4-{6-(pyridin-4-yl)-8-[(thiophen-2-ylmethyl)amino]imidazo[1,2-a]pyrazin-3-yl}benzamide]
- IC50: 4.1 nM
